Results: ChEMBL document CHEMBL4308841, “Synthesis, in vitro antiproliferative activity, and kinase inhibitory effects of pyrazole-containing diarylureas and diarylamides” (Eur J Med Chem, 2018)

What was measured:
[1] = system: TK-10; assay: Growth inhibition of human TK10 cells assessed as cell growth at 10 uM incubated for 48 hrs by sulforhodamine B assay relative to control; format: functional; conditions: TK-10, 48 h, read-out: Activity
[2] = system: MOLT-4; assay: Growth inhibition of human MOLT4 cells incubated for 48 hrs by sulforhodamine B assay; format: functional, cell-based; conditions: MOLT-4, 48 h
[3] = system: A549; assay: Growth inhibition of human A549/ATCC cells incubated for 48 hrs by sulforhodamine B assay; format: functional, cell-based; conditions: A549, 48 h
[4] = system: SNB-75; assay: Growth inhibition of human SNB75 cells incubated for 48 hrs by sulforhodamine B assay; format: functional, cell-based; conditions: SNB-75, 48 h
[5] = system: UACC-257; assay: Growth inhibition of human UACC257 cells incubated for 48 hrs by sulforhodamine B assay; format: functional, cell-based; conditions: UACC-257, 48 h
[6] = system: SK-OV-3; assay: Growth inhibition of human SKOV3 cells incubated for 48 hrs by sulforhodamine B assay; format: functional, cell-based; conditions: SK-OV-3, 48 h
[7] = system: DU-145; assay: Growth inhibition of human DU145 cells incubated for 48 hrs by sulforhodamine B assay; format: functional, cell-based; conditions: DU-145, 48 h
[8] = system: HCT-116; assay: Growth inhibition of human HCT116 cells assessed as cell growth at 0.01 uM incubated for 48 hrs by sulforhodamine B assay relative to control; format: functional; conditions: HCT-116, 48 h, read-out: Activity
[9] = system: SNB-75; assay: Growth inhibition of human SNB75 cells assessed as cell growth at 0.01 uM incubated for 48 hrs by sulforhodamine B assay relative to control; format: functional; conditions: SNB-75, 48 h, read-out: Activity
[10] = system: MDA-MB-435; assay: Growth inhibition of human MDA-MB-435 cells assessed as cell growth at 0.01 uM incubated for 48 hrs by sulforhodamine B assay relative to control; format: functional; conditions: MDA-MB-435, 48 h, read-out: Activity
[11] = system: SK-MEL-5; assay: Growth inhibition of human SK-MEL-5 cells assessed as cell growth at 0.01 uM incubated for 48 hrs by sulforhodamine B assay relative to control; format: functional; conditions: SK-MEL-5, 48 h, read-out: Activity
[12] = system: SK-OV-3; assay: Growth inhibition of human SKOV3 cells assessed as cell growth at 0.01 uM incubated for 48 hrs by sulforhodamine B assay relative to control; format: functional; conditions: SK-OV-3, 48 h, read-out: Activity
[13] = system: A498; assay: Growth inhibition of human A498 cells assessed as cell growth at 0.01 uM incubated for 48 hrs by sulforhodamine B assay relative to control; format: functional; conditions: A498, 48 h, read-out: Activity
[14] = system: DU-145; assay: Growth inhibition of human DU145 cells assessed as cell growth at 0.01 uM incubated for 48 hrs by sulforhodamine B assay relative to control; format: functional; conditions: DU-145, 48 h, read-out: Activity
[15] = system: K562; assay: Growth inhibition of human K562 cells assessed as cell growth at 0.1 uM incubated for 48 hrs by sulforhodamine B assay relative to control; format: functional; conditions: K562, 48 h, read-out: Activity
[16] = system: A549; assay: Growth inhibition of human A549/ATCC cells assessed as cell growth at 0.1 uM incubated for 48 hrs by sulforhodamine B assay relative to control; format: functional; conditions: A549, 48 h, read-out: Activity
[17] = system: SK-MEL-28; assay: Growth inhibition of human SK-MEL-28 cells assessed as cell growth at 0.1 uM incubated for 48 hrs by sulforhodamine B assay relative to control; format: functional; conditions: SK-MEL-28, 48 h, read-out: Activity
[18] = system: IGROV-1; assay: Growth inhibition of human IGROV1 cells assessed as cell growth at 0.1 uM incubated for 48 hrs by sulforhodamine B assay relative to control; format: functional; conditions: IGROV-1, 48 h, read-out: Activity
[19] = system: OVCAR-3; assay: Growth inhibition of human OVCAR3 cells assessed as cell growth at 0.1 uM incubated for 48 hrs by sulforhodamine B assay relative to control; format: functional; conditions: OVCAR-3, 48 h, read-out: Activity
[20] = system: NCI-H226; assay: Growth inhibition of human NCI-H226 cells assessed as cell growth at 1 uM incubated for 48 hrs by sulforhodamine B assay relative to control; format: functional; conditions: NCI-H226, 48 h, read-out: Activity
[21] = system: SK-MEL-5; assay: Growth inhibition of human SK-MEL-5 cells assessed as cell growth at 1 uM incubated for 48 hrs by sulforhodamine B assay relative to control; format: functional; conditions: SK-MEL-5, 48 h, read-out: Activity
[22] = system: OVCAR-8; assay: Growth inhibition of human OVCAR8 cells assessed as cell growth at 1 uM incubated for 48 hrs by sulforhodamine B assay relative to control; format: functional; conditions: OVCAR-8, 48 h, read-out: Activity
[23] = system: SK-OV-3; assay: Growth inhibition of human SKOV3 cells assessed as cell growth at 1 uM incubated for 48 hrs by sulforhodamine B assay relative to control; format: functional; conditions: SK-OV-3, 48 h, read-out: Activity
[24] = system: MDA-MB-231; assay: Growth inhibition of human MDA-MB-231 cells assessed as cell growth at 1 uM incubated for 48 hrs by sulforhodamine B assay relative to control; format: functional; conditions: MDA-MB-231, 48 h, read-out: Activity
[25] = system: K562; assay: Growth inhibition of human K562 cells assessed as cell growth at 100 uM incubated for 48 hrs by sulforhodamine B assay relative to control; format: functional; conditions: K562, 48 h, read-out: Activity
[26] = system: RPMI-8226; assay: Growth inhibition of human RPMI8226 cells assessed as cell growth at 100 uM incubated for 48 hrs by sulforhodamine B assay relative to control; format: functional; conditions: RPMI-8226, 48 h, read-out: Activity
[27] = system: COLO 205; assay: Growth inhibition of human COLO205 cells assessed as cell growth at 100 uM incubated for 48 hrs by sulforhodamine B assay relative to control; format: functional; conditions: COLO 205, 48 h, read-out: Activity
[28] = system: SF-268; assay: Growth inhibition of human SF268 cells assessed as cell growth at 100 uM incubated for 48 hrs by sulforhodamine B assay relative to control; format: functional; conditions: SF-268, 48 h, read-out: Activity
[29] = system: SF-295; assay: Growth inhibition of human SF295 cells assessed as cell growth at 100 uM incubated for 48 hrs by sulforhodamine B assay relative to control; format: functional; conditions: SF-295, 48 h, read-out: Activity
[30] = read-out: LC50 (the source's name)
[31] = read-out: pLC50 (the source's name) (converted)

O=C(Nc1cccc(-n2cc(-c3ccncc3)c(-c3cc(O)cc(Cl)c3)n2)c1)Nc1ccc(Cl)c(C(F)(F)F)c1
growth at 10 µM [1]: 25.9% | GI50 ([2]; read-out: GI50): 1.99 µM | CC50 [2, 30]: > 100 µM | TGI ([2]; read-out: TGI): 58.1 µM | GI50 ([2]; read-out: pGI50 (converted)): 2 µM | CC50 [2, 31]: > 100 µM | TGI ([2]; read-out: pTGI (converted)): 5.75 µM | IC50 [3]: 2.33 µM | GI50 ([3]; read-out: GI50): 2.33 µM | CC50 [3, 30]: > 100 µM | TGI ([3]; read-out: TGI): 92 µM | GI50 ([3]; read-out: pGI50 (converted)): 2.34 µM | CC50 [3, 31]: > 100 µM | TGI ([3]; read-out: pTGI (converted)): 9.12 µM | GI50 ([4]; read-out: GI50): 1.49 µM | CC50 [4, 30]: > 100 µM | TGI ([4]; read-out: TGI): 63.6 µM | GI50 ([4]; read-out: pGI50 (converted)): 1.48 µM | CC50 [4, 31]: > 100 µM | TGI ([4]; read-out: pTGI (converted)): 6.31 µM | GI50 ([5]; read-out: GI50): 1.99 µM | CC50 [5, 30]: 19.2 µM | TGI ([5]; read-out: TGI): 63.4 µM | GI50 ([5]; read-out: pGI50 (converted)): 2 µM | CC50 [5, 31]: 19.1 µM | TGI ([5]; read-out: pTGI (converted)): 5.37 µM | GI50 ([6]; read-out: GI50): 4.11 µM | CC50 [6, 30]: > 100 µM | TGI ([6]; read-out: TGI): 30.7 µM | GI50 ([6]; read-out: pGI50 (converted)): 4.07 µM | CC50 [6, 31]: > 100 µM | TGI ([6]; read-out: pTGI (converted)): 30.9 µM | GI50 ([7]; read-out: GI50): 3.77 µM | CC50 [7, 30]: 55.8 µM | TGI ([7]; read-out: TGI): 11.7 µM | GI50 ([7]; read-out: pGI50 (converted)): 3.31 µM | CC50 [7, 31]: 56.2 µM | TGI ([7]; read-out: pTGI (converted)): 11.7 µM | growth at 0.01 µM [8]: 104% | growth at 0.01 µM [9]: 53% | growth at 0.01 µM [10]: 97% | growth at 0.01 µM [11]: 97% | growth at 0.01 µM [12]: 108% | growth at 0.01 µM [13]: 58% | growth at 0.01 µM [14]: 103% | growth at 0.1 µM [15]: 94% | growth at 0.1 µM [16]: 100% | growth at 0.1 µM [17]: 100% | growth at 0.1 µM [18]: 98% | growth at 0.1 µM [19]: 95% | growth at 1 µM [20]: 96% | growth at 1 µM [21]: 90% | growth at 1 µM [22]: 99% | growth at 1 µM [23]: 107% | growth at 1 µM [24]: 77% | growth at 100 µM [25]: -9% | growth at 100 µM [26]: -30% | growth at 100 µM [27]: -77% | growth at 100 µM [28]: -27% | growth at 100 µM [29]: -80%
